33 compounds from patent US10336761B2, “TGFβ receptor antagonist” (BRISTOL-MYERS SQUIBB COMPANY, priority 2015, dated 2019) can be followed below.

The target in this test is HIS-TGFβR1 T204D (Homo sapiens (Human), UniProt P36897, T204D). As to the kind of experiment: HTRF probe-displacement assay, HIS-TGFβR1 T204D. Format: binding. Conditions: 1 hour at room temperature. (In TR-FRET formats the signal depends on donor and acceptor labels being close together.)
Chain of HIS-TGFβR1 T204D (P36897 34-503 T204D): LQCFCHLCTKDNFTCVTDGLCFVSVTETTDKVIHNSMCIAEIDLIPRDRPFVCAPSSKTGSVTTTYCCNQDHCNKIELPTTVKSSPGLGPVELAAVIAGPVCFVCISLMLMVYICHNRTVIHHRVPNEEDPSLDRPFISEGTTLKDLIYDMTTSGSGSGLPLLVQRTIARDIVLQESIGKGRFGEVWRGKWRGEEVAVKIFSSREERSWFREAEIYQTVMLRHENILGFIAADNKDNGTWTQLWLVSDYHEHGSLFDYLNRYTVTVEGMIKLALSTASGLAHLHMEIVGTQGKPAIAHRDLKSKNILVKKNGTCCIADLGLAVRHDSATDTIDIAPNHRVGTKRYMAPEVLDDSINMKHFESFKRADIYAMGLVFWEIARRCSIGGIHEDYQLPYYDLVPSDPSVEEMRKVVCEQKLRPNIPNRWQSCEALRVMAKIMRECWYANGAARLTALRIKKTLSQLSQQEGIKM
The term IC50 denotes the concentration needed to halve the response being measured. `Cc1cccc(-c2nc(Nc3ccncc3)c3cc(C(=O)Nc4ccccc4)cn3n2)n1` [Example 217, 2-(6-methylpyridin-2-yl)-N-phenyl-4-[(pyridin-4-yl)amino]pyrrolo[2,1-f][1,2,4]triazine-6-carboxamide] returned an IC50 of 7.7 nM.
Compound `COc1cccc(-c2nc(Nc3ccncc3F)c3cc(NC(=O)CNS(C)(=O)=O)cn3n2)n1` [Example 110, N-{4-[(3-fluoropyridin-4-yl)amino]-2-(6-methoxypyridin-2-yl)pyrrolo[2,1-f][1,2,4]triazin-6-yl}-2-methanesulfonamidoacetamide] yielded an IC50 of 130 nM.
`CC(=O)Nc1cc(Nc2nc(-c3cccc(F)n3)nn3cccc23)ccn1` [Example 291, N-(4-{[2-(6-fluoropyridin-2-yl)pyrrolo[2,1-f][1,2,4]triazin-4-yl]amino}pyridin-2-yl)acetamide] gave an IC50 of 0.86 nM.
In the case of `Cc1cccc(-c2nc(Nc3ccncc3C(=O)NCCCN3CCS(=O)(=O)CC3)c3cccn3n2)n1` [Example 36, N-(3-(1,1-dioxidothiomorpholino)propyl)-4-((2-(6-methylpyridin-2-yl)pyrrolo[2,1-f][1,2,4]triazin-4-yl)amino)nicotinamide], the IC50 worked out at 3 nM.
`Cc1cccc(-c2nc(Nc3ccncc3C(=O)NCCCO)c3cccn3n2)n1` [Example 159, N-(3-hydroxypropyl)-4-{[2-(6-methylpyridin-2-yl)pyrrolo[2,1-f][1,2,4]triazin-4-yl]amino}pyridine-3-carboxamide] had a half-inhibitory concentration (IC50) of 4.8 nM. Against the preceding compound, the IC50 is about 1.6-fold higher.
Then `FC(F)c1cccc(-c2nc(Nc3ccncc3Cl)c3cccn3n2)n1` [Example 80, 3-chloro-N-{2-[6-(difluoromethyl)pyridin-2-yl]pyrrolo[2,1-f][1,2,4]triazin-4-yl}pyridin-4-amine], with 1.1 nM; and `COc1cccc(-c2nc(Nc3ccncc3)c3c(C)ccn3n2)n1` [Example 16, N-[2-(6-methoxypyridin-2-yl)-5-methylpyrrolo[2,1-f][1,2,4]triazin-4-yl]pyridin-4-amine], with 9.4 nM; and `Fc1cnccc1Nc1nc(-c2ccccn2)nn2ccc(CN3CCN(c4ncccn4)CC3)c12` [Example 276, 3-fluoro-N-[2-(pyridin-2-yl)-5-{[4-(pyrimidin-2-yl)piperazin-1-yl]methyl}pyrrolo[2,1-f][1,2,4]triazin-4-yl]pyridin-4-amine], with 1.6 nM.
As to `Cc1cc(Nc2nc(-c3cccc(C(F)(F)F)n3)nn3cccc23)ccn1` [Example 257, 2-methyl-N-{2-[6-(trifluoromethyl)pyridin-2-yl]pyrrolo[2,1-f][1,2,4]triazin-4-yl}pyridin-4-amine], the half-maximal inhibitory concentration (IC50) worked out at 660 nM.
`O=C(CN1CCNCC1)Nc1cc(Nc2nc(-c3cccc(C(F)(F)F)n3)nn3cccc23)ccn1` [Example 322, 2-(piperazin-1-yl)-N-[4-({2-[6-(trifluoromethyl)pyridin-2-yl]pyrrolo[2,1-f][1,2,4]triazin-4-yl}amino)pyridin-2-yl]acetamide]: the IC50 was found to be 1.3 nM.
With `O=C(c1cnccc1Nc1nc(-c2cccc(C(F)F)n2)nn2cccc12)N1CCC1` [Example 189, 3-(azetidine-1-carbonyl)-N-{2-[6-(difluoromethyl)pyridin-2-yl]pyrrolo[2,1-f][1,2,4]triazin-4-yl}pyridin-4-amine], the IC50 was 4.3 nM. This IC50 is about 3.3-fold higher than that of the compound before.
With `NCCCNCc1ccn2nc(-c3ccccn3)nc(Nc3ccncc3F)c12` [Example 286, N-(5-{[(3-aminopropyl)amino]methyl}-2-(pyridin-2-yl)pyrrolo[2,1-f][1,2,4]triazin-4-yl)-3-fluoropyridin-4-amine], the IC50 was 2.9 nM. The IC50 values of the last two compounds are within 1.5-fold of each other.
Take `CSc1nccc(-c2nc(Nc3ccncc3)c3cccn3n2)n1` [Example 215, N-{2-[2-(methylsulfanyl)pyrimidin-4-yl]pyrrolo[2,1-f][1,2,4]triazin-4-yl}pyridin-4-amine]: the IC50 was 6.9 nM.
For the compound `COc1cccc(-c2nc(Nc3ccncc3NC(C)=O)c3cccn3n2)n1` [Example 47, N-(4-{[2-(6-methoxypyridin-2-yl)pyrrolo[2,1-f][1,2,4]triazin-4-yl]amino}pyridin-3-yl)acetamide], the IC50 was 180 nM. This IC50 is about 26-fold higher than that of the compound before.
For `Fc1cnccc1Nc1nc(-c2cccc(C(F)(F)F)n2)nn2ccc(CN3CCC(F)(F)CC3)c12` [Example 123, N-{5-[(4,4-difluoropiperidin-1-yl)methyl]-2-[6-(trifluoromethyl)pyridin-2-yl]pyrrolo[2,1-f][1,2,4]triazin-4-yl}-3-fluoropyridin-4-amine], the IC50 was found to be 13 nM.
As to `OCCN1CCN(Cc2ccn3nc(-c4cccc(C(F)F)n4)nc(Nc4ccncc4F)c23)CC1` [Example 253, 2-[4-({2-[6-(difluoromethyl)pyridin-2-yl]-4-[(3-fluoropyridin-4-yl)amino]pyrrolo[2,1-f][1,2,4]triazin-5-yl}methyl)piperazin-1-yl]ethan-1-ol], the half-inhibitory concentration (IC50) was 1.2 nM.
The compound `CC(=O)Nc1cc(Nc2nc(-c3cccc(C(F)F)n3)nn3cccc23)ccn1` [Example 13, N-[4-({2-[6-(difluoromethyl)pyridin-2-yl]pyrrolo[2,1-f][1,2,4]triazin-4-yl}amino)pyridin-2-yl]acetamide] returned an IC50 of 0.19 nM.
With `Cc1nc(-c2nc(Nc3ccncc3C(=O)NCCN3CCS(=O)(=O)CC3)c3cccn3n2)ccc1F` [Example 35, N-[2-(1,1-dioxo-1,4-thiomorpholin-4-yl)ethyl]-4-{[2-(5-fluoro-6-methylpyridin-2-yl)pyrrolo[2,1-f][1,2,4]triazin-4-yl]amino}pyridine-3-carboxamide], the IC50 stood at 22 nM. Compared with the last compound, the IC50 is about 120-fold higher.
For `Cc1cccc(-c2nc(Nc3ccncc3)c3cc(C(N)=O)cn3n2)n1` [Example 219, 2-(6-methylpyridin-2-yl)-4-[(pyridin-4-yl)amino]pyrrolo[2,1-f][1,2,4]triazine-6-carboxamide], the IC50 came to 10 nM.
Turning to `CCC(=O)Nc1cc(Nc2nc(-c3cccc(C(F)(F)F)n3)nn3cccc23)ccn1` [Example 313, N-[4-({2-[6-(trifluoromethyl)pyridin-2-yl]pyrrolo[2,1-f][1,2,4]triazin-4-yl}amino)pyridin-2-yl]propanamide], the IC50 turned out to be 0.89 nM.
`CC(C)(O)CNCC(=O)Nc1cc(Nc2nc(-c3cccc(C(F)(F)F)n3)nn3cccc23)ccn1` [Example 330, 2-[(2-hydroxy-2-methylpropyl)amino]-N-[4-({2-[6-(trifluoromethyl)pyridin-2-yl]pyrrolo[2,1-f][1,2,4]triazin-4-yl}amino)pyridin-2-yl]acetamide] returned an IC50 of 0.6 nM.
With `Fc1cnccc1Nc1nc(-c2ccccn2)nn2ccc(CNCCC3CCCN3)c12` (stereo not drawn) [Example 270, 3-fluoro-N-[2-(pyridin-2-yl)-5-({[2-(pyrrolidin-2-yl)ethyl]amino}methyl)pyrrolo[2,1-f][1,2,4]triazin-4-yl]pyridin-4-amine], the IC50 is 3.6 nM.
In the case of `OCC1(CNCc2ccn3nc(-c4ccccn4)nc(Nc4ccncc4F)c23)COC1` [Example 296, (3-{[({4-[(3-fluoropyridin-4-yl)amino]-2-(pyridin-2-yl)pyrrolo[2,1-f][1,2,4]triazin-5-yl}methyl)amino]methyl}oxetan-3-yl)methanol], the IC50 was under 0.25 nM.
As to `O=C(N[C@H]1CCC[C@@H]1O)c1cnccc1Nc1nc(-c2cccc(C(F)F)n2)nn2cccc12` [Example 199, 4-({2-[6-(difluoromethyl)pyridin-2-yl]pyrrolo[2,1-f][1,2,4]triazin-4-yl}amino)-N-[(1S,2S)-2-hydroxycyclopentyl]pyridine-3-carboxamide], the IC50 came to 61 nM.
`Fc1ccc(-c2nc(Nc3ccncc3F)c3cccn3n2)nc1` [Example 65, 3-fluoro-N-[2-(5-fluoropyridin-2-yl)pyrrolo[2,1-f][1,2,4]triazin-4-yl]pyridin-4-amine] yielded an IC50 of 0.79 nM. Compared with the last compound, the IC50 is about 77-fold lower.
`CC(=O)Nc1cc(Nc2nc(-c3cccc(F)n3)nn3cccc23)c(F)cn1` [Example 339, N-(5-fluoro-4-{[2-(6-fluoropyridin-2-yl)pyrrolo[2,1-f][1,2,4]triazin-4-yl]amino}pyridin-2-yl)acetamide]: the IC50 was found to be 3.3 nM.
For the compound `O=C(c1cnccc1Nc1nc(-c2cccc(C(F)F)n2)nn2cccc12)N1CCCC1` [Example 186, N-{2-[6-(difluoromethyl)pyridin-2-yl]pyrrolo[2,1-f][1,2,4]triazin-4-yl}-3-(pyrrolidine-1-carbonyl)pyridin-4-amine], the IC50 was 32 nM.
As for `OCC1(NCc2ccn3nc(-c4ccccn4)nc(Nc4ccncc4F)c23)CCCC1` [Example 244, {1-[({4-[(3-fluoropyridin-4-yl)amino]-2-(pyridin-2-yl)pyrrolo[2,1-f][1,2,4]triazin-5-yl}methyl)amino]cyclopentyl}methanol], the IC50 stood at 6.3 nM.
`CN1CCN(CC(=O)Nc2cc(Nc3nc(-c4cccc(C(F)(F)F)n4)nn4cccc34)ccn2)CC1` [Example 316, 2-(4-methylpiperazin-1-yl)-N-[4-({2-[6-(trifluoromethyl)pyridin-2-yl]pyrrolo[2,1-f][1,2,4]triazin-4-yl}amino)pyridin-2-yl]acetamide] returned a half-maximal inhibitory concentration (IC50) of 1 nM.
With `Cc1cccc(-c2nc(Nc3ccncc3C(=O)NC[C@H](O)CO)c3cccn3n2)n1` [Example 158, N-[(2S)-2,3-dihydroxypropyl]-4-{[2-(6-methylpyridin-2-yl)pyrrolo[2,1-f][1,2,4]triazin-4-yl]amino}pyridine-3-carboxamide], the 50% inhibitory concentration (IC50) was found to be 7.9 nM. This IC50 is about 7.9-fold higher than that of the compound before.
Then `Fc1cnccc1Nc1nc(-c2ccccn2)nn2ccc(CNc3ccc4[nH]nnc4c3)c12` [Example 306, N-({4-[(3-fluoropyridin-4-yl)amino]-2-(pyridin-2-yl)pyrrolo[2,1-f][1,2,4]triazin-5-yl}methyl)-1H-1,2,3-benzotriazol-5-amine], with 5.3 nM; and `Fc1cnccc1Nc1nc(-c2ccccn2)nn2ccc(CNCC3CNCCO3)c12` (stereo not drawn) [Example 299, 3-fluoro-N-(5-{[(morpholin-2-ylmethyl)amino]methyl}-2-(pyridin-2-yl)pyrrolo[2,1-f][1,2,4]triazin-4-yl)pyridin-4-amine], with 23 nM; and `COCCC(=O)Nc1cc(Nc2nc(-c3cccc(C(F)(F)F)n3)nn3cccc23)ccn1` [Example 343, 3-methoxy-N-[4-({2-[6-(trifluoromethyl)pyridin-2-yl]pyrrolo[2,1-f][1,2,4]triazin-4-yl}amino)pyridin-2-yl]propanamide], with 1.8 nM.
